Common to all, as to settings: 24 h
For assay [1], the system named is U-2 OS. Put plainly: intracellular GSH:GSSG ratio (calculated); higher = more reduced glutathione pool. How it is done:
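Intracellular glutathione in U-2 OS cells after 24 h compound treatment at 5, 10 and 20 uM (some at 40 and 80 uM). Total glutathione and GSSG were measured with the GSH/GSSG-Glo kit, and the GSH:GSSG ratio was calculated. Mean of five technical replicate plates.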

In assay [2] the test system is U-2 OS. Kind of assay: cell viability (CellTiter-Glo) relative to DMSO (% of control); higher = more viable. How it is done: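 Cell viability of U-2 OS cells by CellTiter-Glo after 24 h compound treatment at 5, 10 and 20 uM (some at 40 and 80 uM), measured in parallel with the glutathione assay, as percent of DMSO control. Five technical replicate plates, averaged.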

The test system of assay [3] is U-2 OS. Put plainly: cell painting activity score (Mahalanobis distance from DMSO wells); higher = stronger morphological phenotype. In outline: (§1)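 In this cell painting assay, roughly 1,500 U-2 OS cells per well in 384-well plates were pin-tool treated at 37 °C for 24 h, typically at six 2-fold steps from 20 μM down to 625 nM. Cells were stained with MitoTracker, concanavalin A, phalloidin, wheat germ agglutinin, Hoechst and SYTO 14, imaged on an Opera Phenix, and analysed in CellProfiler with normalization to same-plate DMSO cells. Reported values are means of four replicate plates, with the activity score defined as the Mahalanobis distance from DMSO wells and cell count defined relative to DMSO wells.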

The test system of assay [4] is U-2 OS. Kind of assay: relative cell count vs DMSO (cell painting) (fraction of DMSO control); higher = more cells remaining (less cytotoxic). Summed up:
as §1

In assay [5] the test system is U-2 OS. Put plainly: total intracellular glutathione (GSH + GSSG) relative to DMSO (% of control); higher = more glutathione. The procedure:
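Total intracellular glutathione (GSH + GSSG) in U-2 OS cells by GSH/GSSG-Glo after 24 h compound treatment at 5, 10 and 20 uM (some at 40 and 80 uM), as percent of DMSO control. Five technical replicate plates, averaged.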

Each structure is given as a SMILES string. ± gives the standard deviation of the averaged measurements.

`CCCCCCCCCCCC1=C(O)C(=O)C=C(O)C1=O`: the “intracellular GSH:GSSG ratio” value in the assay on U-2 OS [1] (5 µM) was 32.2; in the assay on U-2 OS [1] (10 µM), 27.4; in the assay on U-2 OS [1] (20 µM), 35.5; in the assay with U-2 OS [1] (40 µM), 15.8; in the assay with U-2 OS [1] (80 µM), 31.4. The cell viability was 102 ± 5.8 in the assay with U-2 OS [2] (5 µM); 97.6 ± 2.5 in the assay on U-2 OS [2] (10 µM); 98.7 ± 5.4 in the assay with U-2 OS [2] (20 µM); 70.1 ± 25 with U-2 OS [2] (40 µM); 93.3 ± 4.2 in the assay on U-2 OS [2] (80 µM). Further, the “cell painting activity score” value was determined as 4.78 in the assay on U-2 OS [3] (0.625 µM); 4.55 with U-2 OS [3] (1.25 µM); 7.31 in the assay with U-2 OS [3] (2.5 µM); 4.7 in the assay on U-2 OS [3] (5 µM); 8.2 in the assay on U-2 OS [3] (10 µM); 25 in the assay with U-2 OS [3] (20 µM). Moreover, the “cell painting activity score” value is 22.2 with U-2 OS [3] (40 µM) and 21.8 in the assay on U-2 OS [3] (80 µM). For the same compound, the relative cell count in the assay on U-2 OS [4] (0.625 µM) was 0.898; in the assay with U-2 OS [4] (1.25 µM), 0.848; with U-2 OS [4] (2.5 µM), 0.944; in the assay with U-2 OS [4] (5 µM), 0.907; in the assay with U-2 OS [4] (10 µM) it was 0.478; in the assay with U-2 OS [4] (20 µM), 0.08. Also, the relative cell count stood at 0.237 in the assay on U-2 OS [4] (40 µM) and 0.332 with U-2 OS [4] (80 µM).

As to `NC1CS(=O)(=O)c2ccccc21` (configuration not stated), the “intracellular GSH:GSSG ratio” value in the assay with U-2 OS [1] (5 µM) is 3.24. In addition, the cell viability in the assay on U-2 OS [2] (5 µM) turned out to be 56.6 ± 6.3; in the assay with U-2 OS [2] (10 µM) it was 58 ± 7.3; in the assay with U-2 OS [2] (20 µM), 56.7 ± 7.8. Moreover, the total intracellular glutathione was found to be 51.9 ± 5.3 in the assay with U-2 OS [5] (5 µM), 51.6 ± 4.8 in the assay on U-2 OS [5] (10 µM) and 45.5 ± 3.2 in the assay on U-2 OS [5] (20 µM). The “cell painting activity score” value amounted to 4.42 in the assay with U-2 OS [3] (0.625 µM); 4.19 in the assay on U-2 OS [3] (1.25 µM); 4.72 in the assay on U-2 OS [3] (2.5 µM); 3.88 in the assay with U-2 OS [3] (5 µM); 3.43 in the assay with U-2 OS [3] (10 µM); 4.56 in the assay with U-2 OS [3] (20 µM). Further, the relative cell count with U-2 OS [4] (0.625 µM) stood at 0.986; in the assay with U-2 OS [4] (1.25 µM), 1.06; in the assay on U-2 OS [4] (2.5 µM) it was 1.06; in the assay on U-2 OS [4] (5 µM), 1.07; in the assay with U-2 OS [4] (10 µM), 1.06; with U-2 OS [4] (20 µM) it was 1.04.

Consider `CC1=C(CO)C(=O)O[C@H](C(C)[C@H]2CC[C@@H]3[C@H]4C[C@H]5O[C@@]56[C@@H](O)C=CC(=O)[C@@]6(C)C4CC[C@@]23C)C1` (some centres not stated), for which the “intracellular GSH:GSSG ratio” value in the assay on U-2 OS [1] (5 µM) was 1.55; with U-2 OS [1] (10 µM), 4.28; with U-2 OS [1] (20 µM) it was 0.143. The cell viability was 55.7 ± 8.4 in the assay with U-2 OS [2] (5 µM), 42.7 ± 2 in the assay with U-2 OS [2] (10 µM) and 59.4 ± 12 with U-2 OS [2] (20 µM). Further, the total intracellular glutathione in the assay with U-2 OS [5] (5 µM) is 43.6 ± 5.1; with U-2 OS [5] (10 µM), 39.2 ± 4.1; in the assay on U-2 OS [5] (20 µM), 32.8 ± 3.3. The “cell painting activity score” value with U-2 OS [3] (0.625 µM) came to 10.3; with U-2 OS [3] (1.25 µM), 16.1; in the assay on U-2 OS [3] (2.5 µM), 17.1; in the assay with U-2 OS [3] (5 µM), 17.6; in the assay on U-2 OS [3] (10 µM) it was 29; with U-2 OS [3] (20 µM), 20.3. For the same compound, the relative cell count stood at 0.988 in the assay on U-2 OS [4] (0.625 µM); 0.352 in the assay with U-2 OS [4] (1.25 µM); 0.402 with U-2 OS [4] (2.5 µM); 0.38 with U-2 OS [4] (5 µM); 0.146 with U-2 OS [4] (10 µM); 0.0181 with U-2 OS [4] (20 µM).

With `COc1cccc2c1C(=O)c1c(O)c3c(c(O)c1C2=O)C[C@@](O)(C(=O)CO)C[C@@H]3O[C@H]1C[C@H](N)[C@H](O)[C@H](C)O1`, the “intracellular GSH:GSSG ratio” value in the assay with U-2 OS [1] (5 µM) is 12.1; in the assay with U-2 OS [1] (10 µM), 13; with U-2 OS [1] (20 µM), 5.76. Moreover, the cell viability with U-2 OS [2] (5 µM) turned out to be 54.3 ± 2.8; in the assay with U-2 OS [2] (10 µM), 38.7 ± 6.3; in the assay on U-2 OS [2] (20 µM) it was 21.7 ± 1.3. Besides, the total intracellular glutathione was found to be 51.8 ± 7.2 in the assay on U-2 OS [5] (5 µM), 34.9 ± 5.7 in the assay on U-2 OS [5] (10 µM) and 18.7 ± 1.3 in the assay with U-2 OS [5] (20 µM). The “cell painting activity score” value amounted to 15.7 ± 0.51 in the assay with U-2 OS [3] (0.625 µM); 17.8 ± 2.5 in the assay on U-2 OS [3] (1.25 µM); 18.5 ± 2.1 with U-2 OS [3] (2.5 µM); 19.7 ± 0.41 in the assay with U-2 OS [3] (5 µM); 20.8 ± 0.47 in the assay with U-2 OS [3] (10 µM); 24.3 ± 0.053 in the assay on U-2 OS [3] (20 µM). Further, the relative cell count with U-2 OS [4] (0.625 µM) came out at 0.473 ± 0.035; with U-2 OS [4] (1.25 µM), 0.5 ± 0.033; in the assay on U-2 OS [4] (2.5 µM), 0.431 ± 0.044; in the assay on U-2 OS [4] (5 µM), 0.404 ± 0.081; in the assay on U-2 OS [4] (10 µM) it was 0.311 ± 0.025; in the assay on U-2 OS [4] (20 µM), 0.2492 ± 0.0023.

The values above are taken from the supplement of paper PMC10011410.
